Laboratory results from patent US9408796B2, “Cosmetic compositions for improving the appearance of skin” (Avon Products, Inc., priority 2013, dated 2016).

How the values were obtained:
[1] = test system: Human dermal fibroblasts; assay: Collagen stimulation: procollagen type I C-peptide (PIP) EIA on conditioned medium; assay type: cell-based; details: 0.0005% compound, 48-hour incubation, increase in collagen over the vehicle control
Experimental: (§1) Collagen. Human dermal fibroblasts (Cascade Biologics, Portland, Oreg.) were plated at in 96-well culture plates in supplemented medium (DMEM, 10% Fetal Bovine Serum, 1% Penicillin/Streptomycin and 1% L-Glutamine) overnight in humidified atmosphere of 10% CO2 at 37° C. The following day, the medium was replaced with fresh medium (DMEM, 1% Penicillin/Streptomycin and 1% L-Glutamine) and the actives dissolved in a vehicle were added to the wells in triplicate. Vehicle was used as control. Following 48-hour incubation, the plates were removed from the incubator and the medium from each well was collected for the procollagen assay.
Collage production was measured using procollagen type I C-peptide (PIP) EIA kit (Takara Bio, Inc., Japan). Briefly, the conditioned medium was diluted 1:10 in Sample Diluent. 20 μl of diluted conditioned medium and 100 μl of antibody-POD conjugate solution were added to the wells of the Takara ELISA plate. The ELISA plate was incubated at 37° C. for 3 hours before the wells were washed four times with 400 μl of 1×PBS. At the end of wash, 100 μl of substrate solution (supplied with kit) was added to the wells and incubated at room temperature for 15 minutes. […] The absorbance was measured on a spectrophotometer at 450 nm wavelength. The amount of procollagen peptide in the conditioned medium was calculated from the standard curve. […]

[2] = test system: Human dermal fibroblasts; assay: Hyaluronic acid stimulation: hyaluronic acid test kit on conditioned medium; assay type: cell-based; details: 0.0005% compound, 48-hour incubation, increase in hyaluronic acid over the vehicle control
Experimental: as §1, with “Human” for “Collagen. Human”, “hyaluronic acid” for “procollagen”
Hyaluronic acid production was measured using hyaluronic acid test kit (Corgenix, Inc. CO, USA). Briefly, 100 μl diluted conditioned medium was added to appropriate microwells and was incubated for 60 minutes at room temperature. After the incubation is complete, the conditioned medium was removed and 100 μl HRP-conjugated HABP solution was added to each well and incubated for 30 minutes at room temperature. Wash each well 4 times with PBS after the incubation is complete. Add 100 μl One-component Substrate Solution to each well and incubate for 30 minutes at room temperature. Add 100 μl Stopping Solution to stop the enzyme reaction and read the O.D. of each well at 450 nm. The amount of hyaluronic acid in the conditioned medium was calculated from the standard curve. […]

Row | SMILES | Collagen stimulation [1] | Hyaluronic acid stimulation [2]
1 | COc1ccccc1CNc1nc(-c2ccc(O)c(C(N)=O)c2)cs1 [Formula I(c)] | + (The “+” describes a stimulation of between 21-40%) | –
2 | COc1cccc(-c2nc(-c3ccc(O)c(C(N)=O)c3)cs2)c1OC [Formula I(d)] | + (The “+” describes a stimulation of between 21-40%) | + (The “+” describes a stimulation of between 21-40%)
